Measured values reported in ChEMBL document CHEMBL4043074, “Bortezomib inhibits mammalian carbonic anhydrases” (Bioorg Med Chem, 2017).

Tests used:
Carbonic anhydrase 9 = Carbonic anhydrase 9 (Homo sapiens, UniProt Q16790)
Description: Inhibition of human CA9 by stopped-flow CO2 hydrase assay

Carbonic anhydrase 1 = Carbonic anhydrase 1 (Homo sapiens, UniProt P00915)
Description: Inhibition of human CA1 by stopped-flow CO2 hydrase assay

Carbonic anhydrase 2 = Carbonic anhydrase 2 (Homo sapiens, UniProt P00918)
Description: Inhibition of human CA2 by stopped-flow CO2 hydrase assay

Carbonic anhydrase 12 = Carbonic anhydrase 12 (Homo sapiens, UniProt O43570)
Description: Inhibition of human CA12 by stopped-flow CO2 hydrase assay

Carbonic anhydrase 4 = Carbonic anhydrase 4 (Homo sapiens, UniProt P22748); assay: Inhibition of human CA4 by stopped-flow CO2 hydrase assay
[1] = target: Carbonic anhydrase 5A, mitochondrial (Homo sapiens, UniProt P35218); assay: Inhibition of human CA5A by stopped-flow CO2 hydrase assay
[2] = target: Carbonic anhydrase 5B, mitochondrial (Homo sapiens, UniProt Q9Y2D0); assay: Inhibition of human CA5B by stopped-flow CO2 hydrase assay
Carbonic anhydrase 13 = Carbonic anhydrase 13 (Homo sapiens, UniProt Q8N1Q1); assay: Inhibition of human CA13 by stopped-flow CO2 hydrase assay
Carbonic anhydrase 14 = Carbonic anhydrase 14 (Homo sapiens, UniProt Q9ULX7); assay: Inhibition of human CA14 by stopped-flow CO2 hydrase assay
Carbonic anhydrase 3 = Carbonic anhydrase 3 (Homo sapiens, UniProt P07451)
Description: Inhibition of human CA3 by stopped-flow CO2 hydrase assay

Carbonic anhydrase 6 = Carbonic anhydrase 6 (Homo sapiens, UniProt P23280)
Description: Inhibition of human CA6 by stopped-flow CO2 hydrase assay

Carbonic anhydrase 7 = Carbonic anhydrase 7 (Homo sapiens, UniProt P43166)
Description: Inhibition of human CA7 by stopped-flow CO2 hydrase assay

Carbonic anhydrase 15 = target: T1, Carbonic anhydrase 15 (Mus musculus, UniProt Q99N23)
T1 sequence (Q99N23 whole entry): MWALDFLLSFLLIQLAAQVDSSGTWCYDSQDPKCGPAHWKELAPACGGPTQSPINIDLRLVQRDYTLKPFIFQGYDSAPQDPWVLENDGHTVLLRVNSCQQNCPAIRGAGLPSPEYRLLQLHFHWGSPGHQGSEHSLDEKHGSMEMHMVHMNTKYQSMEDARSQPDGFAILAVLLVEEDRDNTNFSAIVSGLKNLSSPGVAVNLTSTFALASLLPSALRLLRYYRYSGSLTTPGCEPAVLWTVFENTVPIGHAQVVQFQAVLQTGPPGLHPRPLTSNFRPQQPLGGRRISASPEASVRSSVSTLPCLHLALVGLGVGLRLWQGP
Description: Inhibition of mouse CA15 by stopped-flow CO2 hydrase assay

Chain of Carbonic anhydrase 12 (O43570 whole entry): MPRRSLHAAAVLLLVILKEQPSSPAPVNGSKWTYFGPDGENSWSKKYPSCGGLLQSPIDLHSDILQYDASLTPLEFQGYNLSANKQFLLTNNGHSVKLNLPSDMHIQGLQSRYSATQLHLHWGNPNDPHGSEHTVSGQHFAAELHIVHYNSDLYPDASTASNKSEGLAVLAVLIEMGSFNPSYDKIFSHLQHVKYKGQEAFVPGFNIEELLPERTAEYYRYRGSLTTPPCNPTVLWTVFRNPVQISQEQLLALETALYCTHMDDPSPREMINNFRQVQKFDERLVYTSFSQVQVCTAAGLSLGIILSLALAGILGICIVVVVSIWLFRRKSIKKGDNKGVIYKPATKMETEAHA
Chain of Carbonic anhydrase 13 (Q8N1Q1 whole entry): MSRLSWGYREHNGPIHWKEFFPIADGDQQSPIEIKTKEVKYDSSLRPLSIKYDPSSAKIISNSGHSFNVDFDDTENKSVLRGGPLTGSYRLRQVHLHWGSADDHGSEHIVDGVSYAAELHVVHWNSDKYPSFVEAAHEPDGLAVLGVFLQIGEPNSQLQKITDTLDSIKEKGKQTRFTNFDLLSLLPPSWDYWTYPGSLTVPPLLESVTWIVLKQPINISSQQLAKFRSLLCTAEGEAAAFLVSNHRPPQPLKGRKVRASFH
Chain of Carbonic anhydrase 14 (Q9ULX7 whole entry): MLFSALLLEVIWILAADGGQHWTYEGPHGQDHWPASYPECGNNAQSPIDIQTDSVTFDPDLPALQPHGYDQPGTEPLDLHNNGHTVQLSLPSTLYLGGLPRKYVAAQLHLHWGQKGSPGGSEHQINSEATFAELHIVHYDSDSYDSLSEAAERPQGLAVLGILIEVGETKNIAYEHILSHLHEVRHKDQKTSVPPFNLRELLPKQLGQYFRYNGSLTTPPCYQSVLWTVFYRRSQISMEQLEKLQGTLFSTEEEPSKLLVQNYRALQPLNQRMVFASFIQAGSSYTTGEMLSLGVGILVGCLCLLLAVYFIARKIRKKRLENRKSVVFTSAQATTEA
Chain of Carbonic anhydrase 1 (P00915 whole entry): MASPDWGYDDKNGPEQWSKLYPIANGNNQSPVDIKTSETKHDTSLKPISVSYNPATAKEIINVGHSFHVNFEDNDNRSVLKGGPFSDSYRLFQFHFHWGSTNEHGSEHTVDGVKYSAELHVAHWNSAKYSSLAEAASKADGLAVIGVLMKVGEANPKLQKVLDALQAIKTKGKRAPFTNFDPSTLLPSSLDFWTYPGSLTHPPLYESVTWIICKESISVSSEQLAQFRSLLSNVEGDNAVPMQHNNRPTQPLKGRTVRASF
Chain of Carbonic anhydrase 3 (P07451 whole entry): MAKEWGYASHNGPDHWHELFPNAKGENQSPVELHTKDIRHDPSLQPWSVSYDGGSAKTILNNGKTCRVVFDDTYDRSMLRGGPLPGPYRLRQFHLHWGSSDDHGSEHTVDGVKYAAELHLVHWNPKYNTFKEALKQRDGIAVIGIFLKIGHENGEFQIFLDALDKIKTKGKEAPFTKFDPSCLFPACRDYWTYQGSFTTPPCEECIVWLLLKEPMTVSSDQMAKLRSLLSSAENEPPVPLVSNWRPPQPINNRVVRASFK
Chain of Carbonic anhydrase 5A, mitochondrial (P35218 whole entry): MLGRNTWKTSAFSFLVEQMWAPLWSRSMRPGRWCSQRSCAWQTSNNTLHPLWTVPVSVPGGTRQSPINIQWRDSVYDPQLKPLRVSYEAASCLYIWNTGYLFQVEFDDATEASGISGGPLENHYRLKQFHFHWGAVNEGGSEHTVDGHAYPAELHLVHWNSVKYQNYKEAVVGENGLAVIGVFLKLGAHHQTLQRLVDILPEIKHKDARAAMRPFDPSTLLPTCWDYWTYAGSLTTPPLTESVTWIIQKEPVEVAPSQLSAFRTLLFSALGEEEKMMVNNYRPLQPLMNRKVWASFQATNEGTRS
Chain of Carbonic anhydrase 5B, mitochondrial (Q9Y2D0 whole entry): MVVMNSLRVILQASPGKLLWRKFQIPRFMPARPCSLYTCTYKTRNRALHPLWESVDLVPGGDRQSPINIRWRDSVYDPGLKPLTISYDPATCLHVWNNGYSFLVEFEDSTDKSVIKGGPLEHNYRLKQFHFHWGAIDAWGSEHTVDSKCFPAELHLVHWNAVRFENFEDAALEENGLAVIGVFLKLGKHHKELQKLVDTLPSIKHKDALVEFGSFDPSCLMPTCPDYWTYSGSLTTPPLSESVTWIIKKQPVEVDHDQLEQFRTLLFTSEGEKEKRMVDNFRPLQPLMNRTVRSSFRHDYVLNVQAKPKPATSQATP
Chain of Carbonic anhydrase 6 (P23280 whole entry): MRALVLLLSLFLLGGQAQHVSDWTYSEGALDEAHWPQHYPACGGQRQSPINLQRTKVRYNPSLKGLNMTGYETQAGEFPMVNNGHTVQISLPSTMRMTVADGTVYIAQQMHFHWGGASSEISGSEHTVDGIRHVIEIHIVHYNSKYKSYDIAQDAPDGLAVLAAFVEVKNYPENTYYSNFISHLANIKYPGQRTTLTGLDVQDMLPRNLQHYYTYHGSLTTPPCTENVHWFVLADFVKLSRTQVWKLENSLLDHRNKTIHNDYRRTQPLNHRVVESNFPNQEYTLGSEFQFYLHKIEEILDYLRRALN
Chain of Carbonic anhydrase 7 (P43166 whole entry): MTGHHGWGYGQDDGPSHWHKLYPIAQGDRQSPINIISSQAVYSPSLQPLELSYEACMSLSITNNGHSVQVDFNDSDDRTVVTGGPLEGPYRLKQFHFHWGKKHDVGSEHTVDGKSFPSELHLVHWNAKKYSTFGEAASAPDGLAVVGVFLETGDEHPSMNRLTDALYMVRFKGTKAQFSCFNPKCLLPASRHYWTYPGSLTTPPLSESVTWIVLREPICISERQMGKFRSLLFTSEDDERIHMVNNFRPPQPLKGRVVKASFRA
Chain of Carbonic anhydrase 4 (P22748 whole entry): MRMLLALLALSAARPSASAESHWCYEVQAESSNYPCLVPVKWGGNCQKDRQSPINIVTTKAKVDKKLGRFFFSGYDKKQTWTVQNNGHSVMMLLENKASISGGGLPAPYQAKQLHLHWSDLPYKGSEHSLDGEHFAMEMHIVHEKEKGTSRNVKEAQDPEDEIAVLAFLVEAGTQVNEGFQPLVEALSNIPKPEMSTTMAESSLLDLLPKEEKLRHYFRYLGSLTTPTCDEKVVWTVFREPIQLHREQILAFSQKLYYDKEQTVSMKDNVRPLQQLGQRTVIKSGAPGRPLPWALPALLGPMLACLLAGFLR

| Ki (Carbonic anhydrase 9) | Ki (Carbonic anhydrase 1) | Ki (Carbonic anhydrase 2) | Ki (Carbonic anhydrase 12) | Ki (Carbonic anhydrase 4) | Ki [1] | Ki [2] | Ki (Carbonic anhydrase 13) | Ki (Carbonic anhydrase 14) | Ki (Carbonic anhydrase 3) | Ki (Carbonic anhydrase 6) | Ki (Carbonic anhydrase 7) | Ki (Carbonic anhydrase 15) | Compound |
| --- | --- | --- | --- | --- | --- | --- | --- | --- | --- | --- | --- | --- | --- |
| > 50 µM | 5.69 µM | 8.18 µM | > 50 µM |  |  |  |  |  |  |  |  |  | OB1OCc2ccccc21 [BENZOXABOROLE] |
| 3.38 µM |  |  | 5.87 µM | 6.51 µM | 6.92 µM | 6.83 µM | 8.45 µM | 3.28 µM | 4.57 µM | 4.38 µM | 6.94 µM | 2.68 µM | CC(C)C[C@H](NC(=O)[C@H](Cc1ccccc1)NC(=O)c1cnccn1)B(O)O [BORTEZOMIB] |
| > 50 µM | > 50 µM | > 50 µM | > 50 µM |  | > 50 µM | > 50 µM | > 50 µM | > 50 µM | > 50 µM | > 50 µM |  |  | OB(O)c1ccccc1 [PHENYLBORONIC ACID] |
